Measured values from patent US20200113852A1, “METHODS OF PATIENT SELECTION AND TREATING TRXR- OR PRDX-OVEREXPRESSED CANCERS” (TRIACT THERAPEUTICS, INC., priority 2017, published 2020).

Key:
[1] = test system: HCT116 cells; experiment: Iniparib metabolites release, XLC-MS/MS of incubation media; format: in vitro ADME, human; parameters: unit not given beside the values; settings: HCT116 w BSO
Method: (§1) Online solid phase extraction (SPE) was performed using the fully automated Spark Holland Symbiosis™ (Emmen, The Netherlands) in eXtraction Liquid Chromatography (XLC) mode. The Symbiosis™ has previously been described in detail (18). HySphere™ C18 HD 7 μm SPE cartridges were used (Spark Holland). Each cartridge was initially conditioned with 2 ml methanol+0.5% formic acid (FA) and then equilibrated with 2 ml water+0.5% FA, both at flow-rates of 4 ml/min. Sample (25 μl) was aspirated and loaded onto the cartridge with 1 ml water+0.5% FA at a flow-rate of 1 ml/min. […] After elution, the right clamp was washed successively with 2 ml water+0.5% FA, 2 ml methanol+0.5% FA and 2 ml water+0.5% FA at 4 ml/min. […] The mobile phase composition was returned to starting conditions over 1 min and maintained during 6 min for column equilibration. The total run time was 27 min. Mass spectrometry was performed using the Thermo® TSQ Quantum Discovery Max in electrospray positive ionization mode (Thermo, US) with the following parameters: capillary voltage=4.0 kV, capillary temperature=300° C., sheath gas pressure=40, auxiliary gas pressure=5.
(§2) All values are expressed as means±SEM of three independent experiments. ND., non detectable.

[2] = test system: MDA-MB-453 cells; experiment: as above; format: in vitro ADME, human; parameters: unit not given beside the values
Method: as §1, §2

[3] = target: T1, human recombinant glutathione S-transferase pi (GSTP1) (Homo sapiens, UniProt P09211); experiment: In vitro Iniparib-glutathione conjugation; format: biochemical; settings: 30 μM, 1 mM GSH, absence of GSTP1
T1 construct: purchased Acris
T1 sequence (P09211 whole entry): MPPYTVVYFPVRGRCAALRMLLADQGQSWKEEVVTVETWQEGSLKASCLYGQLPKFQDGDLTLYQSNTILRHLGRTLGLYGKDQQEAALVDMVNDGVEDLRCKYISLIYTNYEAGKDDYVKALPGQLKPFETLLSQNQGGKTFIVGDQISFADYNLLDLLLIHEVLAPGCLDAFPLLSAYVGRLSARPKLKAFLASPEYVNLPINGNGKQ
Method: as §1

[4] = test system: several cancer cell lines; experiment: Cytotoxic activity on several cancer cell lines (preliminary screening); settings: all cell lines
[5] = target: T2, recombinant human GAPDH (Homo sapiens, UniProt P04406); experiment: In vitro modification of GAPDH by Iniparib and I-NOBA; format: binding
T2 construct: purchased Acris
T2 sequence (P04406 whole entry): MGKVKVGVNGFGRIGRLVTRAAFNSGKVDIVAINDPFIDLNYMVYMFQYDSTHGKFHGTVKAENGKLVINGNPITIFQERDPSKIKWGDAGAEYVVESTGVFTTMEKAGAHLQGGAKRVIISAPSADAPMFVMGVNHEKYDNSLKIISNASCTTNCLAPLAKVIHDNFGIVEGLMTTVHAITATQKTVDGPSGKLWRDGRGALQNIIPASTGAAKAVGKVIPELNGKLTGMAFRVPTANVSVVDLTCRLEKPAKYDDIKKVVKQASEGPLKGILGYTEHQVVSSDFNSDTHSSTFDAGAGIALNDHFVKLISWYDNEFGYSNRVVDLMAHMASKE
Method: For biochemical analysis, recombinant human GAPDH (Acris) was first reduced by a 15,000-fold excess of DTT at 56° C. for 30 min, the reducing agent being removed thereafter by chloroform/methanol precipitation. […] Afterwards the samples were submitted or not to another reducing step with 25 mM DTT (56° C., 30 min), and after removal of DTT by chloroform/methanol precipitation, biotinylation of free cysteine sulfhydryl groups of GAPDH was performed with HPDP-biotin (N-[6-(Biotinamido)hexyl]-3′-(2′-pyridyldithio)propionamide) at […] for 2 h at 20° C.
Sample mixtures were then reduced or not with 25 mM DTT (56° C., 30 min). Intact molecular weights were measured by mass spectrometry. Liquid chromatography-electrospray ionization mass spectrometry (LC/MS) was carried out using LTQ-Orbitrap Elite mass spectrometer (Thermo Fisher Scientific) coupled to a Famos Autosampler and an Ultimate Pump (LC-Packing, Dionex). Reverse phase chromatography was performed with a binary buffer system consisting of 0.2% formic acid (buffer A) and 80% acetonitrile in 0.2% formic acid (buffer B). After dilution to 1 pmole/μl in 0.2% formic acid, 1 μl of samples were loaded on a Poros 1 R/H column (75 μm×15 cm, Dionex). […] Mass spectra (m/z 500-2,000) were acquired in the positive ITMS mode with 5 μscans accumulation, a target value of 30,000 and a maximum injection time of 100 ms. The acquired raw files were converted in MassLynx format (Waters) using an home-made program and then were deconvoluted using MaxEnt software (Waters).

[6] = Phase I clinical trial GBM, pharmacokinetics; format: in vivo, human; settings: for Cmax: geometric mean±SD, plasma; for Metabolite/iniparib concentration ratio: arithmetic average±SD
From the text: No cytochrome P450-inducing anticonvulsants. However, Gliadel was permitted.
Dosing is IV 2×/week continuous.

[7] = test system: Trx, JNK, p38MAPK, PARP in HCT116 cells; experiment: Cell death signaling western blots (Trx oxidation, phospho-JNK, phospho-p38MAPK, cleaved-PARP)
Method: Cells extracts were analyzed by SDS-PAGE either under reducing conditions or under non-reducing conditions in the case of Trx blot followed by blots anti-phospho-JNK, anti-phospho-p38MAPK, anti-cleaved-PARP and anti-Trx. Results are representative of three independent experiments.
After 2 h at 4° C., lysates were clarified by centrifugation and protein amounts were measured using the BCA assay (Pierce, Thermo scientific).
Equal amounts of proteins were resolved by SDS-PAGE under either non-reducing or reducing (5% 2-mercaptoethanol, 20 min at 60° C.) conditions, using 4-20% gels (Novex, Invitrogen), then subjected to semi-dry electrophoretic transfer onto nitrocellulose membranes.

## NC(=O)c1ccc(I)c(NO)c1 [I-HABM]
[1]; 24 h after 100 μM Iniparib
  Iniparib and metabolites in incubation media: 0.1 ± 0.0

## NC(=O)c1ccc(I)c(N=O)c1 [I-NOBA]
[1]; 1 h after 100 μM Iniparib
  Iniparib and metabolites in incubation media: 4.4 ± 0.0
[1]; 5 h after 100 μM Iniparib
  Iniparib and metabolites in incubation media: 14.6 ± 0.1
[1]; 24 h after 100 μM Iniparib
  Iniparib and metabolites in incubation media: 26.5 ± 2.9
[2]; MDA-MB-453 w BSO, 1 h after 100 μM Iniparib
  Iniparib and metabolites in incubation media: 0.6 ± 0.1
[2]; MDA-MB-453 w BSO, 5 h after 100 μM Iniparib
  Iniparib and metabolites in incubation media: 3.5 ± 0.7
[2]; MDA-MB-453 w BSO, 24 h after 100 μM Iniparib
  Iniparib and metabolites in incubation media: 2.9 ± 1.0
[2]; MDA-MB-453 w/o BSO, 24 h after 100 μM Iniparib
  Iniparib and metabolites in incubation media: 0.2 ± 0.1
[3]
  reaction with GSH: reacted with GSH
[4]
  cytotoxic activity relative to Iniparib: more active than Iniparib
[5]; purified GAPDH incubated with compound
  covalent modification of GAPDH (MS analysis): formation of protein adducts
[5]; purified GAPDH, biotin-HPDP labeling, streptavidin-HRP blot
  blocking of free thiol groups in GAPDH: completely blocked

## Nc1cc(C(=O)O)ccc1I [IABA]
[6]; 5.1 mg/kg IV 2×/week
  Cmax: 16.6 ± 5.2 ng/mL
[6]; 5.1 mg/kg
  Metabolite/iniparib concentration ratio: 3.0 ± 2.0%
[6]; 6.1 mg/kg IV 2×/week
  Cmax: 14.9 ± 8.3 ng/mL
[6]; 6.1 mg/kg
  Metabolite/iniparib concentration ratio: 2.0 ± 1.5%
[6]; 6.8 mg/kg IV 2×/week
  Cmax: 19.9 ± 6.6 ng/mL
[6]; 6.8 mg/kg
  Metabolite/iniparib concentration ratio: 2.4 ± 1.4%
[6]; 8.0 mg/kg IV 2×/week
  Cmax: 14.5 ± 15.0 ng/mL
[6]; 8.0 mg/kg
  Metabolite/iniparib concentration ratio: 0.7 ± 0.7%
[6]; 8.6 mg/kg IV 2×/week
  Cmax: 31.5 ± 10.4 ng/mL
[6]; 8.6 mg/kg
  Metabolite/iniparib concentration ratio: 2.5 ± 1.4%
[6]; 9.5 mg/kg IV 2×/week
  Cmax: 19.8 ± 14.0 ng/mL
[6]; 9.5 mg/kg
  Metabolite/iniparib concentration ratio: 2.0 ± 2.0%

## CN[C@@H]1C[C@H]2O[C@@](C)([C@@H]1OC)n1c3ccccc3c3c4c(c5c6ccccc6n2c5c31)C(=O)NC4 [staurosporine, reference compound]
[7]; GSH-depleted HCT116
  PARP1 cleavage: triggered PARP1 cleavage
[7]; GSH-depleted HCT116, 7 h or 24 h, 100 μM Iniparib, 1 μM Auranofin, 100 nM Staurosporin
  Trx oxidation: unable to induce oxidation of Trx
